# Data taken from patent US10576088B2, “Compositions comprising finafloxacin and Tris” (MerLion Pharmaceuticals Pte. Ltd., priority 2014, dated 2020).
# What was measured:
# [1] = Solubility of finafloxacin HCl in Tris, phosphate and pH-adjusted WfI (Example 1); type: physicochemical
# Protocol: The solubility of finafloxacin, in form of its mono-hydrochloride salt, was tested at pH values between 7.3 and 9.0, using the following solutions: 0.01 M Tris: Water for injection 800 ml, Tris 1.21 g, sodium chloride 7.5 g, water for injection ad 1000 ml; pH was adjusted with HCl/NaOH. 0.025 M Phosphate: Water for injection 800 ml, sodium dihydrogen phosphate 1.950 g, disodium hydrogen phosphate 2.225 g, sodium chloride 7.5 g, water for injection ad 1000 ml; pH was adjusted with HCl/NaOH. WfI: Water for injection 900 ml, sodium chloride 7.5 g, water for injection ad 1000 ml; pH was adjusted with HCl/NaOH.
# [2] = Solubility of finafloxacin HCl in different concentrations of Tris solutions (Example 2); type: physicochemical
# Protocol: 0.25 M Tris: Water for injection 800 ml, Tris 30.3 g, sodium chloride 7.5 g, water for injection ad 1000 ml; pH was adjusted with HCl/NaOH. 0.17 M Tris: Water for injection 800 ml, Tris 20.0 g, sodium chloride 7.5 g, water for injection ad 1000 ml; pH was adjusted with HCl/NaOH. 0.08 M Tris: Water for injection 800 ml, Tris 10.0 g, sodium chloride 7.5 g, water for injection ad 1000 ml; pH was adjusted with HCl/NaOH. […] In contrast to example 1 the pH was not re-adjusted after the stepwise addition of finafloxacin.
# S. aureus 29213 = assay: In vitro susceptibility test (MIC), finafloxacin composition with Tris; type: cell-based; settings: Staphylococcus aureus, composition at pH 8.0 containing 0.05 M Tris, read-out: minimal inhibitory concentration (MIC)
# Protocol: (§1) The efficacy of finafloxacin compositions including Tris between pH 8.0-8.5 was examined and determined as follows:
# (§2) 4.1 Bacteria were incubated in a finafloxacin composition at pH 8.0 containing 0.05 M Tris and the minimal inhibitory concentration (MIC) of finafloxacin, defined as the minimal finafloxacin concentration that inhibited the growth of the bacterium, was determined using a standard in vitro susceptibility test.
# E. coli 25922 = assay: as above; type: cell-based; settings: Escherichia coli, composition at pH 8.0 containing 0.05 M Tris, read-out: minimal inhibitory concentration (MIC)
# Protocol: as §1, §2
# E. coli ATCC 25922 = assay: Mouse intraperitoneal infection model, bacterial burden; type: in vivo; settings: mice, composition with 0.01 M Tris, doses 4 and 12 hours post infection, burden 24 hours post infection
# Protocol: 4.2 Mice were infected with 3.9×10^5 E. coli ATCC 25922 suspended in 1% porcine mucin administered by a 0.5 ml intraperitoneal injection. Antibacterial treatment with a finafloxacin composition comprising 0.01 M Tris was initiated 4 hours post infection with a second dose 12 hours post infection. The bacterial burden in the peritoneal fluid and blood culture was determined 24 hours post infection. Finafloxacin was effective at all doses with 1 mg/kg causing a reduction in burden of 3.1 log 10 cfu/g, finafloxacin administered at 3, 10 and 30 mg/kg were increasingly effective causing reductions of 4.4, 5.0 and 6.5 log 10 cfu/g, respectively.
# pathogen in the urine = assay: Microbiological cure in patients with complicated urinary tract infections and pyelonephritis; type: in vivo, human; settings: intravenous 800 mg once daily, composition with 0.01 M Tris, 17 days after start of treatment, cure = pathogen in urine ≤10^3 cfu/ml
# Protocol: 4.3 Patients with complicated urinary tract infections and pyelonephritis were treated with an intravenous dose of 800 mg Finafloxacin once daily. 17 days after the start of the treatment the microbiological cure results were determined. Microbiological cure is defined as the reduction of the concentration of the pathogen in the urine to a titer of ≤10^3 cfu/ml. The finafloxacin composition comprising 0.01 M Tris caused an efficient eradication of the pathogens. The microbiological cure rate was 83%.
# [3] = Stability of finafloxacin composition comprising Tris (Example 3); type: physicochemical; settings: solution of 3.20 g/l finafloxacin, 7.80 g/l NaCl, 1.21 g/l Tris, pH 8.25, water for injection
# Text: The following composition was used to test the stability: [table]
# [4] = 2-week intravenous toxicological appraisal in rats; type: in vivo; settings: 2 weeks, 60, 120 and 200 mg/kg/day, in 0.01 M Tris, 0.75% (w/v) sodium chloride, pH 8.5
# Text: The test article was formulated in 0.01 M Tris containing sodium chloride to 0.75% (w/v), adjusted in water for injection to pH 8.5.
structure (smiles),measurement,setting,value
Cl.N#Cc1c(N2C[C@@H]3NCCO[C@H]3C2)c(F)cc2c(=O)c(C(=O)O)cn(C3CC3)c12 [Finafloxacin HCl],solubility,"[1]; 0.01 M Tris, pH 7.5, pH re-adjusted",6.0 mg/mL
same,solubility,"[1]; 0.01 M Tris, pH 8.0, pH re-adjusted",15.0 mg/mL
same,solubility,"[1]; 0.01 M Tris, pH 8.5, pH re-adjusted",>28 mg/mL
same,solubility,"[1]; 0.01 M Tris, pH 9.0, pH re-adjusted",>28 mg/mL
same,solubility,"[1]; 0.025 M Phosphate, pH 7.5, pH re-adjusted",2.0 mg/mL
same,solubility,"[1]; 0.025 M Phosphate, pH 8.0, pH re-adjusted",4.0 mg/mL
same,solubility,"[1]; 0.025 M Phosphate, pH 8.5, pH re-adjusted",6.0 mg/mL
same,solubility,"[1]; 0.025 M Phosphate, pH 9.0, pH re-adjusted",8.0 mg/mL
same,solubility,"[1]; pH-adjusted WfI, pH 7.5",2.0 mg/mL
same,solubility,"[1]; pH-adjusted WfI, pH 8.0",4.0 mg/mL
same,solubility,"[1]; pH-adjusted WfI, pH 8.5",6.0 mg/mL
same,solubility,"[1]; pH-adjusted WfI, pH 9.0",6.0 mg/mL
same,solubility,"[2]; 0.08 M Tris, pH 7.8, pH not re-adjusted",4.0 mg/mL
same,solubility,"[2]; 0.08 M Tris, pH 8.2, pH not re-adjusted",6.0 mg/mL
same,solubility,"[2]; 0.08 M Tris, pH 8.6, pH not re-adjusted",9.0 mg/mL
same,solubility,"[2]; 0.08 M Tris, pH 9.0, pH not re-adjusted",10.0 mg/mL
same,solubility,"[2]; 0.17 M Tris, pH 7.4, pH not re-adjusted",2.0 mg/mL
same,solubility,"[2]; 0.17 M Tris, pH 7.8, pH not re-adjusted",6.0 mg/mL
same,solubility,"[2]; 0.17 M Tris, pH 8.2, pH not re-adjusted",10.0 mg/mL
same,solubility,"[2]; 0.17 M Tris, pH 8.6, pH not re-adjusted",19.0 mg/mL
same,solubility,"[2]; 0.17 M Tris, pH 9.0, pH not re-adjusted",23.0 mg/mL
same,solubility,"[2]; 0.25 M Tris, pH 7.4, pH not re-adjusted",2.0 mg/mL
same,solubility,"[2]; 0.25 M Tris, pH 7.8, pH not re-adjusted",8.0 mg/mL
same,solubility,"[2]; 0.25 M Tris, pH 8.2, pH not re-adjusted",15.0 mg/mL
same,solubility,"[2]; 0.25 M Tris, pH 8.6, pH not re-adjusted",24.0 mg/mL
same,solubility,"[2]; 0.25 M Tris, pH 9.0, pH not re-adjusted",28.0 mg/mL
"N#Cc1c(N2C[C@@H]3NCCO[C@H]3C2)c(F)cc2c(=O)c(C(=O)O)cn(C3CC3)c12 [Finafloxacin, (−)-8-cyano-1-cyclopropyl-6-fluoro-7-[(4aS,7aS)-hexahydropyrrolo[3,4-b]-1,4-oxazin-6(2H)-yl]-4-oxo-1,4-dihydroquinoline-3-carboxylic acid]",MIC,S. aureus 29213,0.5 mg/L
same,MIC,E. coli 25922,0.25 mg/L
same,reduction in burden,E. coli ATCC 25922; 1 mg/kg,3.1 log 10 cfu/g
same,reduction in burden,E. coli ATCC 25922; 3 mg/kg,4.4 log 10 cfu/g
same,reduction in burden,E. coli ATCC 25922; 10 mg/kg,5.0 log 10 cfu/g
same,reduction in burden,E. coli ATCC 25922; 30 mg/kg,6.5 log 10 cfu/g
same,microbiological cure rate,pathogen in the urine,83%
same,increase in solubility,[1]; 0.01 M Tris versus WfI and phosphate buffer,3-4 fold
same,long term stability,[3],at least 24 months
same,tolerability,[4],generally well tolerated
